Values quoted from earlier work, collected in US9877974B2, “Topical formulations comprising a steroid” (Dr. Reddy's Laboratories Ltd., priority 2009, dated 2018).

Which Solubility in acetone (acetone) does the source give for CCC(=O)OCC(=O)[C@@]1(OC(=O)CC)[C@@H](C)C[C@H]2[C@@H]3CCC4=CC(=O)C=C[C@]4(C)[C@@]3(F)[C@@H](O)C[C@@]21C [Betamethasone dipropionate, 9-fluoro-11(β),17,21-trihydroxy-16(β)-methylpregna-1,4-diene-3,20-dione 17,21-dipropionate] here?
Its Solubility in acetone is “freely soluble”.

And the Solubility in chloroform (chloroform)?
Its Solubility in chloroform is “freely soluble”.

And the Solubility in ethanol (ethanol)?
Its Solubility in ethanol is “sparingly soluble”.

And the Solubility in water (water)?
Its Solubility in water is “practically insoluble”.
